From patent US8133917B2, “Pterostilbene as an agonist for the peroxisome proliferator-activated receptor alpha isoform” (The United States of America as represented by the …, priority 2004, dated 2012)

Columns and labels:
PPARα = target: T1, PPARα (Rattus norvegicus, UniProt P37230); assay: Activation of PPARα in H4IIEC3 cells transfected with PPRE-AB-luciferase reporter gene; assay type: cell-based
T1 construct: endogenous in cells; host or cells: H4IIEC3 rat hepatoma cells
T1 sequence (P37230 1-468): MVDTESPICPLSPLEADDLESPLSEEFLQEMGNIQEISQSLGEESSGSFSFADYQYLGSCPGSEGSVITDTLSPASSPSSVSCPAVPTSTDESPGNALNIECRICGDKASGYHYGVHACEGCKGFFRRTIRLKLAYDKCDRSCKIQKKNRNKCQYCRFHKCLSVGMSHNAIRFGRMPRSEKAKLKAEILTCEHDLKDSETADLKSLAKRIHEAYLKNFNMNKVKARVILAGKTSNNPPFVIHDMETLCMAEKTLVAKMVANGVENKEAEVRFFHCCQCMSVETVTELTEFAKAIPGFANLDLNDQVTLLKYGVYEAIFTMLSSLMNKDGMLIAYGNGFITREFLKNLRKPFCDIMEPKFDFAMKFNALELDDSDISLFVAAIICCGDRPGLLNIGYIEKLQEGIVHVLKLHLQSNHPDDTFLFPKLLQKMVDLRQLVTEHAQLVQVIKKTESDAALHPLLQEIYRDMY

[1] = Hamster feeding study: plasma lipoprotein cholesterol, glucose, weights; assay type: in vivo, golden Syrian hamsters; conditions: hamsters; for plasma LDL cholesterol lower compared to control group / total plasma cholesterol lower compared to control group: 25 mg/kg diet
Method: Male golden Syrian hamsters (Charles River, Wilmington, Mass.), initial weight ranging from 34-41 g, were fed a powdered stock diet (Rodent Lab Chow 5001, Purina Mills, St. Louis, Mo.) for 7 days. The animals were placed in individual wire-bottom cages in a room kept at 20-22° C., 60% rh and 12 h light and dark cycle. Following the initial 7 day period, 8-10 animals were randomly assigned from a weight sorted list to each of five test diets (α-cellulose control and test substance). Food intake was measured twice each week and body weights were monitored once a week. After 21 days on the treatment diets, the animals were killed, blood was collected and analyzed for total cholesterol by the cholesterol oxidase method and lipoprotein cholesterol, by size exclusion chromatography, as previously described (German et al. 1996. Nutrition Res. 16: 1239-1249). All animal procedures were approved by the Animal Care and Use Committee, Western Regional Research Center, USDA, Albany, Calif. and conformed to the principles in “Guide for the Care and Use of Laboratory Animals” (Committee on Care and Use of Laboratory Animals 1985). Plasma blood glucose was determined using a blood glucose meter (Fast Glucose Meter-Precision Xtra, MediSense, Bedford, Mass., USA). Diets were prepared by dissolving powdered cholesterol into warmed butterfat, followed by the addition of corn and fish oil. The small amounts of test ingredients were dissolved in about 50 ml of ethanol and added to the stirring dry ingredients. The liquid fat was also added to the dry ingredients while stirring. Differences between treatments were tested by two-tailed t-test assuming equal variance, and were considered significant at p<0.05.

[2] = as above; assay type: in vivo, golden Syrian hamsters; conditions: hamsters; plant materials at about 10% of total diet; data not shown
H4IIEC3 cells = assay: Toxicity to H4IIEC3 cells during the reporter assay; assay type: cell-based, rat; conditions: 100 and 300 μM

SMILES	induction of luciferase activity (PPARα; all the concentrations tested (1, 10, 100, 300 μM))	plasma LDL cholesterol lower compared to control group [1] [%]	total plasma cholesterol lower compared to control group [1] [%]	Final Weights: Body wt (AVG) ([1]; 25 ppm in diet, 21 days) [g]	Final Weights: Liver wt (AVG) ([1]; 25 ppm in diet, 21 days) [g]	LDL/HDL (AVG) ([1]; 25 ppm in diet, 21 days)	Liver/Body (AVG) ([1]; 25 ppm in diet, 21 days)	Plasma Lipoprotein Cholesterol HDL (AVG) ([1]; 25 ppm in diet, 21 days) [mg/dL]	Plasma Lipoprotein Cholesterol LDL (AVG) ([1]; 25 ppm in diet, 21 days) [mg/dL]	Plasma Lipoprotein Cholesterol Total (AVG) ([1]; 25 ppm in diet, 21 days) [mg/dL]	Plasma Lipoprotein Cholesterol VLDL (AVG) ([1]; 25 ppm in diet, 21 days) [mg/dL]	Plasma glucose (AVG) ([1]; 25 ppm in diet, 21 days)	lowering of plasma cholesterol levels versus freeze-dried tomato and eggplant materials [2]	toxicity to H4IIEC3 cells (H4IIEC3 cells)	PPARα activation (luciferase activity) (PPARα; 100 μM, H4IIEC3 cells) [relative luciferase units]	maximal luciferase response compared to control (PPARα; 100 μM, H4IIEC3 cells, 30 hr, n=4)	agonist / activator of PPARα (PPARα; H4IIEC3 cells)
COc1ccc(C=Cc2cc(OC)cc(OC)c2)cc1 [resveratrol trimethylether]	only slightly	–	–	–	–	–	–	–	–	–	–	–	–	–	–	–	–
COc1cc(/C=C/c2ccc(O)cc2)cc(OC)c1 [pterostilbene]	–	29	18	110.5	7.9	1.8	7.1	137.0	228.1	447.8	82.7	185.1	–	–	–	–	–
Oc1ccc(C=Cc2cc(O)cc(O)c2)cc1 [resveratrol]	–	20	14	109.5	7.6	2.2	–	127.1	257.4	468.2	83.6	191	more effective than the plant materials	toxic	–	–	–
CC(C)(Oc1ccc(C2CC2(Cl)Cl)cc1)C(=O)O (stereo not drawn) [ciprofibrate]	–	–	–	–	–	–	–	–	–	–	–	–	–	–	19460±1466	about 5 fold	acts as an agonist of PPARα
